According to PubChem BioAssay AID651862 (Vanderbilt Specialized Chemistry Center, 2012):
The source made the active and inactive calls.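 The calls were made as follows: active = tubulin-normalized E-cadherin at least double the DMSO level by western blot, or significantly raised by in-cell western; inactive = the rest.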

Each compound was assayed on SW620/H520 cells, E-cadherin In-Cell Western (assay: CDH1 protein re-expression in cancer cells – SW620 and H520 cells, In-Cell Western (AID 651862)).
`O=C(NCCCNC(=O)c1ccc[nH]c1=O)c1cc(-c2ccccc2)on1` gave an EC50 of 2.22 µM. Work on `O=C(NCCCNCc1ccc(O)c(O)c1)c1cc(-c2ccccc2)on1` yielded an EC50 of 4.56 µM. In the case of `N#Cc1ccc(NCCCNC(=O)c2cc(-c3ccccc3)on2)nc1`, the EC50 is reported as 3.13 µM. `O=C(NCCCNCc1cnoc1)c1cc(-c2ccccc2)on1` was tested, and the EC50 was 12 µM (inactive). Compound `[N-]=[N+]=Nc1nccc(NCCCNC(=O)c2cc(-c3ccccc3)on2)n1` has an EC50 of 2.55 µM. For `O=C(NCCNC(=O)c1nccs1)c1cc(-c2ccccc2)on1`, the EC50 was 3.82 µM.
